Reference: paper PMC10495264 (Nature Cell Biology, 2023)
Read-outs that look alike come from different tables or passages of the source.

Assays:
TORC1 [1] = target: T1, TORC1 (Saccharomyces cerevisiae, UniProt P35169); experiment: Yeast TORC1 kinase activity assays (radioactive IVK, Lst4^Loop substrate); type: biochemical; conditions: for In vitro TORC1 kinase assay - CoA compounds, relative activity, Mean: Fig. 8b; for IC50: Lst4^Loop phosphorylation, detection limit 6 mM, n = 3, read-out: IC50 (yeast TORC1 IVK)
T1 construct: made in house; host or cells: S. cerevisiae strain NIC005 ([RL170-2c] LEU2:GFP-TOR1)
Protocol: TORC1 was purified from yeast cells and radioactive IVK assays were performed essentially as previously described. Briefly, kinase reactions (total volume, 30 μl) were performed with 400 ng of purified His6–Lst4^Loop protein and 60 ng TORC1 in kinase buffer (50 mM HEPES NaOH pH 7.5 and 150 mM NaCl). […] All reactions were carried out at 30 °C for 10 min and stopped with the addition of 3×sample buffer (50 mM Tris–HCl pH 6.8, 5% SDS, 0.05% bromophenol blue, 630 mM DTT and 30% glycerol) and heating at 65 °C for 10 min. Proteins were separated by SDS–PAGE and stained in-gel with SYPRO Ruby (S4942, Sigma-Aldrich) as the loading control. Substrate phosphorylation was analysed by autoradiography using a Typhoon FLA 9500 phosphorimager (GE Healthcare) and the raw density of the signals was quantified using the gel analysis tool of ImageJ.

mTORC1 = target: T2, mTORC1 (Homo sapiens, UniProt P42345); experiment: Mammalian mTORC1 kinase activity assays (IVK, 4E-BP1 substrate); type: biochemical; conditions: for In vitro mTORC1 assay, p-4E-BP1(T37/46)/4E-BP1, Mean: Fig. 8f, relative to 0 mM
T2 construct: endogenous mTORC1 complexes were purified from HEK293FT cells; endogenous in cells; host or cells: HEK293FT (immunoprecipitation of endogenous mTOR); the 4E-BP1 substrate was made in E. coli BL21 RP
Protocol: Following the last wash step with CHAPS IP wash buffer, the beads were washed once with kinase wash buffer (25 mM HEPES pH 7.4 and 20 mM KCl) and excess liquid was removed using a Hamilton syringe—the final bead volume was approximately 10 μl. Kinase reactions were prepared by adding 10 μl of 3×kinase assay buffer (75 mM HEPES KOH pH 7.4, 60 mM KCl and 30 mM MgCl2) to the beads. […] The reactions were incubated at 30 °C for 30 min, and stopped by the addition of one volume of 2×SDS loading buffer and boiling (5 min, 95 °C). […] Signals were quantified using the gel analysis tool of ImageJ and are shown as the phospho-4E-BP1^T37/46/4E-BP1 ratio.

TORC1 [2] = experiment: TORC1 activity in yeast cells, p-Sch9^T737/Sch9 immunoblot; type: cell-based, Saccharomyces cerevisiae; conditions: wt Ctrl = 1
[3] = compound 0.073 mM, normalised to this concentration

T1 sequence (P35169 whole entry): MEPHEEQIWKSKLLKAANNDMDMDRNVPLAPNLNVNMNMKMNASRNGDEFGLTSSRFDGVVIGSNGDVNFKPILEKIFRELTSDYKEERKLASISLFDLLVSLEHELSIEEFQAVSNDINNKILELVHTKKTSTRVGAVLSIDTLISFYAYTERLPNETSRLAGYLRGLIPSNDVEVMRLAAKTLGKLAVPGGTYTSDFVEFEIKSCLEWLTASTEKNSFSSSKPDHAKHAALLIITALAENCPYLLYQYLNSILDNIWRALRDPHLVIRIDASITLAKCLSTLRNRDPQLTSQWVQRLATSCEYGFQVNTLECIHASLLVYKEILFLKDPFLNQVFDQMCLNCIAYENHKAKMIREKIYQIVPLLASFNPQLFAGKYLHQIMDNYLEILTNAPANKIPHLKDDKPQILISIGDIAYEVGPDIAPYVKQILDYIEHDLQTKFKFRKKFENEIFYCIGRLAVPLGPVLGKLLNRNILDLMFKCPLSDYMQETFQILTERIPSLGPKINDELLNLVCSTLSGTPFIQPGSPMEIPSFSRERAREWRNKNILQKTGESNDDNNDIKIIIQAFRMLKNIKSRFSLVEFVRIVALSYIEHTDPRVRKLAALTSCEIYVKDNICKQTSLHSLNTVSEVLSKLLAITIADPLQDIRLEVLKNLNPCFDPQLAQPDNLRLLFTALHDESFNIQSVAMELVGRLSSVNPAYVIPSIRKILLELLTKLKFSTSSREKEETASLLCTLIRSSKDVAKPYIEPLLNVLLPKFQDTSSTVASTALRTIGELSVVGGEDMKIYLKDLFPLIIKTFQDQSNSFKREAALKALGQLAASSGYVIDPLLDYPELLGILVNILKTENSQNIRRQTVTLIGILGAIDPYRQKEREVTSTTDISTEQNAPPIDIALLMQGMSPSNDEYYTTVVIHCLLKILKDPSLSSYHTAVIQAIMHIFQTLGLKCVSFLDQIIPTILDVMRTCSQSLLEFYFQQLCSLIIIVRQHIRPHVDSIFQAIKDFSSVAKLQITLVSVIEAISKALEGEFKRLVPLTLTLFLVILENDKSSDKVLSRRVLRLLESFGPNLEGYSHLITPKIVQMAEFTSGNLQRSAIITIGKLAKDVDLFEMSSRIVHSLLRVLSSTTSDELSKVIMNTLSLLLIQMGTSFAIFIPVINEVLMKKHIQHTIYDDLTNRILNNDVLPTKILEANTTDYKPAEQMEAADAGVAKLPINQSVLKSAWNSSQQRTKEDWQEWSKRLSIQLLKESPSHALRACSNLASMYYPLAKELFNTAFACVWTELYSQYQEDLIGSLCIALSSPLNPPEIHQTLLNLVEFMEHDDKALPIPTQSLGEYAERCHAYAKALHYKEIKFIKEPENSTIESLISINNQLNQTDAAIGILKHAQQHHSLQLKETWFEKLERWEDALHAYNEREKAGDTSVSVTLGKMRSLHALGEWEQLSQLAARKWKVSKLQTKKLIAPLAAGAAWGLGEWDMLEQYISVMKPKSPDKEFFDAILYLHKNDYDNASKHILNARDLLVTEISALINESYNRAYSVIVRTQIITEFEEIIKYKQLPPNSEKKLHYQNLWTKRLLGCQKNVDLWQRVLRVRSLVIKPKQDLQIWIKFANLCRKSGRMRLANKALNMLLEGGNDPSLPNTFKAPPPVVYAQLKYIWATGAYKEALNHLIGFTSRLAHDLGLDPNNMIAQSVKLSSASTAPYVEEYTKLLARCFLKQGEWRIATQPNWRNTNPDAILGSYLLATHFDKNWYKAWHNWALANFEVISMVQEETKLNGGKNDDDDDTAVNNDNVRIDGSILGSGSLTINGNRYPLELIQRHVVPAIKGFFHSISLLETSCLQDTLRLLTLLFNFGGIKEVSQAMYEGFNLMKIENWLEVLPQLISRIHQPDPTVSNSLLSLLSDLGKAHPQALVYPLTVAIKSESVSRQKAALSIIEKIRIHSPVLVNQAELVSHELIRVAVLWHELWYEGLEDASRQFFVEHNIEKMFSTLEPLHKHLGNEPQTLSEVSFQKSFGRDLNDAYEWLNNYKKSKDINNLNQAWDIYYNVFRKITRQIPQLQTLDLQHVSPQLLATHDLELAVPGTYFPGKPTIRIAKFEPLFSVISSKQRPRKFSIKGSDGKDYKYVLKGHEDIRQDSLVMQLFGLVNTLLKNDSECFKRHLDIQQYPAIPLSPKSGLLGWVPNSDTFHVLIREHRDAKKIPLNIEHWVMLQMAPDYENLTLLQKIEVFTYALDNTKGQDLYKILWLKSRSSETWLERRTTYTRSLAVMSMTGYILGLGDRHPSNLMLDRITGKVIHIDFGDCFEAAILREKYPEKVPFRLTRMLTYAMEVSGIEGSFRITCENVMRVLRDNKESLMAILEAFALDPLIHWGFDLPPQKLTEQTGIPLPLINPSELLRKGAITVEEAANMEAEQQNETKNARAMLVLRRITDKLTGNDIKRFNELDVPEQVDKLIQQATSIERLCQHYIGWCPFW
T1 sequence (Q08921 whole entry partner): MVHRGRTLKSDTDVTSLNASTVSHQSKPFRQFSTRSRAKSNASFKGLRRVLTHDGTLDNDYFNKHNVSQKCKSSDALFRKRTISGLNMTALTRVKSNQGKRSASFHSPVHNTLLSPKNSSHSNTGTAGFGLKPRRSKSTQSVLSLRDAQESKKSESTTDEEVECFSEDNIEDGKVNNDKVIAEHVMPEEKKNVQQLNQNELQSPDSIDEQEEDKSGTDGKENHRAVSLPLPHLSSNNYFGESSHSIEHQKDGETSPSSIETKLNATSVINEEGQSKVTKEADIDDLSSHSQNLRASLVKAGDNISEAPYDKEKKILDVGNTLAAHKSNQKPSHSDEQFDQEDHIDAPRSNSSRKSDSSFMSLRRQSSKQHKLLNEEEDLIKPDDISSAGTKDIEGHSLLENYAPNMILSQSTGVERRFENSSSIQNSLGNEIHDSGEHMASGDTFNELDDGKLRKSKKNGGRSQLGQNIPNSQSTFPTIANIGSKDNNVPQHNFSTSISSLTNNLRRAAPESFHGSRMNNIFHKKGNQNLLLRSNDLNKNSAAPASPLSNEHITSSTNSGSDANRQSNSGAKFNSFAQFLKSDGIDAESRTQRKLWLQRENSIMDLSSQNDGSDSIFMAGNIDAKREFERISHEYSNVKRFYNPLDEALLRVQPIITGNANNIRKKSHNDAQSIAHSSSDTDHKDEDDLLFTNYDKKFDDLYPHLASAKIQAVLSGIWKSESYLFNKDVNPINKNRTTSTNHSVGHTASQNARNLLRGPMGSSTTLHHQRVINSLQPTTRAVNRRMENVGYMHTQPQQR
T1 sequence (P38873 whole entry partner): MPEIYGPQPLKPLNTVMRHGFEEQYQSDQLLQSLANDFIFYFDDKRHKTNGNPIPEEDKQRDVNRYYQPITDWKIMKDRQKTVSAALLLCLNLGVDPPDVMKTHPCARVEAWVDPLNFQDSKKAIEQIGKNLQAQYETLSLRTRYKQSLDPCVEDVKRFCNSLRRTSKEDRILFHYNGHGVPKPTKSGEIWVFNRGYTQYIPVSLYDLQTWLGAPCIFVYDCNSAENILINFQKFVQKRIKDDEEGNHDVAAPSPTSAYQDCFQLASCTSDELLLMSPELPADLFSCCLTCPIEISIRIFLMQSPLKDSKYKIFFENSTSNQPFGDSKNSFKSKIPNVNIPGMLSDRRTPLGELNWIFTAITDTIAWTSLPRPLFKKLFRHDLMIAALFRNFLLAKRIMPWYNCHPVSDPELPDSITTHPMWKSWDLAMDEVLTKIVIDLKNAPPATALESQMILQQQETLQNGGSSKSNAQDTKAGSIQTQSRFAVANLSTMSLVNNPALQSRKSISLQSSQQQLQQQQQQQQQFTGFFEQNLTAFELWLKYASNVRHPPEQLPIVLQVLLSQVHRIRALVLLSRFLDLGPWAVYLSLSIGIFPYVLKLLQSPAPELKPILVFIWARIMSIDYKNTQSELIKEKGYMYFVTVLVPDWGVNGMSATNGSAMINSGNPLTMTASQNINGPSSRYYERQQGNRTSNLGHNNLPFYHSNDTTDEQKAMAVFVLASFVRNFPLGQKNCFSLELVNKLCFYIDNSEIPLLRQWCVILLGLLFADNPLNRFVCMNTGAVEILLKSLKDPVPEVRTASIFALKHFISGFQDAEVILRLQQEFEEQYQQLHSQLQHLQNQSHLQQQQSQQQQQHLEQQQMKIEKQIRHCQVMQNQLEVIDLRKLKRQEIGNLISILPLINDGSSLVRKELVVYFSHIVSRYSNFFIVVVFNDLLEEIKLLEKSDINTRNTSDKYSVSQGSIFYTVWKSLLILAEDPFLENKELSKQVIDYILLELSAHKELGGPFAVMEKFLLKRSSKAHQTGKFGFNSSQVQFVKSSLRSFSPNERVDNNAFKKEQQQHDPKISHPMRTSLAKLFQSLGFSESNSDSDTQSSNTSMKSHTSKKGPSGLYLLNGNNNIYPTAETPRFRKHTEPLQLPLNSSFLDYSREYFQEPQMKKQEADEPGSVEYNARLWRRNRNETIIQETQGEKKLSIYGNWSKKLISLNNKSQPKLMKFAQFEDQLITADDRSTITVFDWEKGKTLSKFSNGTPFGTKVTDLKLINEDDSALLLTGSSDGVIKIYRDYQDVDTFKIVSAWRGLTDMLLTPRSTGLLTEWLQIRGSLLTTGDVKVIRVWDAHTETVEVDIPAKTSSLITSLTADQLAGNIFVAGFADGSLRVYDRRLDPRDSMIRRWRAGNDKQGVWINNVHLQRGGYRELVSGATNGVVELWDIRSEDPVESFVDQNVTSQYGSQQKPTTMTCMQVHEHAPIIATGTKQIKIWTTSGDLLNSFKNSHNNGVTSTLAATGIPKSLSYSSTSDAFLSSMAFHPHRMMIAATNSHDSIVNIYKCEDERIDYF
T1 sequence (P41318 whole entry partner): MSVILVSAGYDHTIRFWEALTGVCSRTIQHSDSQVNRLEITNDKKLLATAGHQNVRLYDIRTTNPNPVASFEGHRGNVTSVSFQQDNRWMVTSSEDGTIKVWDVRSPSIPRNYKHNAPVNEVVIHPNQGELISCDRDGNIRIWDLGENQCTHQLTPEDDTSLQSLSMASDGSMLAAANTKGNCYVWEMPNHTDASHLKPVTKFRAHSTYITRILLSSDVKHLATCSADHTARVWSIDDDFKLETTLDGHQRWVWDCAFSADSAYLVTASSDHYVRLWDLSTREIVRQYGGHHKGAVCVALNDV

## CC(C)(COP(=O)(O)OP(=O)(O)OC[C@H]1O[C@@H](n2cnc3c(N)ncnc32)[C@H](O)[C@@H]1OP(=O)(O)O)[C@@H](O)C(=O)NCCC(=O)NCCS [CoA, coenzyme A]
TORC1 [1]; [3]
  In vitro TORC1 kinase assay - CoA compounds, relative activity, Mean: 1
TORC1 [1]; compound 0.22 mM
  In vitro TORC1 kinase assay - CoA compounds, relative activity, Mean: 1.005
TORC1 [1]; compound 2 mM
  In vitro TORC1 kinase assay - CoA compounds, relative activity, Mean: 0.9479
TORC1 [1]; compound 6 mM
  In vitro TORC1 kinase assay - CoA compounds, relative activity, Mean: 0.6805
TORC1 [1]
  IC50: > 6 mM
mTORC1
  IC50: > 5 mM
mTORC1; compound 0.01 mM
  In vitro mTORC1 assay, p-4E-BP1(T37/46)/4E-BP1, Mean: 0.8503
mTORC1; compound 0.05 mM
  In vitro mTORC1 assay, p-4E-BP1(T37/46)/4E-BP1, Mean: 0.8507
mTORC1; compound 0.1 mM
  In vitro mTORC1 assay, p-4E-BP1(T37/46)/4E-BP1, Mean: 1.093
mTORC1; compound 0.5 mM
  In vitro mTORC1 assay, p-4E-BP1(T37/46)/4E-BP1, Mean: 0.8643
mTORC1; compound 1 mM
  In vitro mTORC1 assay, p-4E-BP1(T37/46)/4E-BP1, Mean: 1.061
mTORC1; compound 2.5 mM
  In vitro mTORC1 assay, p-4E-BP1(T37/46)/4E-BP1, Mean: 0.926
mTORC1; compound 5 mM
  In vitro mTORC1 assay, p-4E-BP1(T37/46)/4E-BP1, Mean: 0.889

## NC(=O)CC[C@H](N)C(=O)O [Gln, glutamine]
TORC1 [2]; Acc1-GFP yeast, nitrogen-starved then +Gln 1 min, ED Fig. 2e
  p-Sch9(T737)/Sch9, Mean: 0.2777
TORC1 [2]; Acc1-GFP yeast, nitrogen-starved then +Gln 2 min, ED Fig. 2e
  p-Sch9(T737)/Sch9, Mean: 0.2567
TORC1 [2]; Acc1-GFP yeast, nitrogen-starved then +Gln 5 min, ED Fig. 2e
  p-Sch9(T737)/Sch9, Mean: 0.172
TORC1 [2]; acc1E392K yeast, nitrogen-starved then +Gln 1 min, ED Fig. 1g
  p-Sch9(T737)/Sch9, Mean: 0.2184
TORC1 [2]; acc1E392K yeast, nitrogen-starved then +Gln 2 min, ED Fig. 1g
  p-Sch9(T737)/Sch9, Mean: 0.4052
TORC1 [2]; acc1E392K yeast, nitrogen-starved then +Gln 5 min, ED Fig. 1g
  p-Sch9(T737)/Sch9, Mean: 0.172
TORC1 [2]; acc1E392K yeast, nitrogen-starved then +Gln 15 min, ED Fig. 1g
  p-Sch9(T737)/Sch9, Mean: 0.07897
TORC1 [2]; acc1E392K,S1157A yeast, nitrogen-starved then +Gln 1 min, ED Fig. 1g
  p-Sch9(T737)/Sch9, Mean: 0.2597
TORC1 [2]; acc1E392K,S1157A yeast, nitrogen-starved then +Gln 2 min, ED Fig. 1g
  p-Sch9(T737)/Sch9, Mean: 0.4125
TORC1 [2]; acc1E392K,S1157A yeast, nitrogen-starved then +Gln 5 min, ED Fig. 1g
  p-Sch9(T737)/Sch9, Mean: 0.1831
TORC1 [2]; acc1E392K,S1157A yeast, nitrogen-starved then +Gln 15 min, ED Fig. 1g
  p-Sch9(T737)/Sch9, Mean: 0.0777
TORC1 [2]; acc1S1157A yeast, nitrogen-starved then +Gln 1 min, ED Fig. 1g
  p-Sch9(T737)/Sch9, Mean: 0.08981
TORC1 [2]; acc1S1157A yeast, nitrogen-starved then +Gln 1 min, ED Fig. 2e
  p-Sch9(T737)/Sch9, Mean: 0.1842
TORC1 [2]; acc1S1157A yeast, nitrogen-starved then +Gln 1 min, Fig. 2e
  p-Sch9(T737)/Sch9, Mean: 0.5322
TORC1 [2]; acc1S1157A yeast, nitrogen-starved then +Gln 2 min, ED Fig. 1g
  p-Sch9(T737)/Sch9, Mean: 0.2298
TORC1 [2]; acc1S1157A yeast, nitrogen-starved then +Gln 2 min, ED Fig. 2e
  p-Sch9(T737)/Sch9, Mean: 0.2323
TORC1 [2]; acc1S1157A yeast, nitrogen-starved then +Gln 2 min, Fig. 2e
  p-Sch9(T737)/Sch9, Mean: 0.5731
TORC1 [2]; acc1S1157A yeast, nitrogen-starved then +Gln 5 min, ED Fig. 1g
  p-Sch9(T737)/Sch9, Mean: 0.1433
TORC1 [2]; acc1S1157A yeast, nitrogen-starved then +Gln 5 min, ED Fig. 2e
  p-Sch9(T737)/Sch9, Mean: 0.1614
TORC1 [2]; acc1S1157A yeast, nitrogen-starved then +Gln 5 min, Fig. 2e
  p-Sch9(T737)/Sch9, Mean: 0.2159
TORC1 [2]; acc1S1157A yeast, nitrogen-starved then +Gln 15 min, ED Fig. 1g
  p-Sch9(T737)/Sch9, Mean: 0.0801
TORC1 [2]; acc1S1157A yeast, nitrogen-starved then +Gln 15 min, Fig. 2e
  p-Sch9(T737)/Sch9, Mean: 0.1147
TORC1 [2]; acc1S1157A-GFP yeast, nitrogen-starved then +Gln 1 min, ED Fig. 2e
  p-Sch9(T737)/Sch9, Mean: 0.2949
TORC1 [2]; acc1S1157A-GFP yeast, nitrogen-starved then +Gln 2 min, ED Fig. 2e
  p-Sch9(T737)/Sch9, Mean: 0.2508
TORC1 [2]; acc1S1157A-GFP yeast, nitrogen-starved then +Gln 5 min, ED Fig. 2e
  p-Sch9(T737)/Sch9, Mean: 0.1919
TORC1 [2]; wt yeast, nitrogen-starved then +Gln 1 min, n = 3, ED Fig. 2e
  p-Sch9(T737)/Sch9, Mean: 0.3518
TORC1 [2]; wt yeast, nitrogen-starved then +Gln 1 min, n = 4, ED Fig. 1g
  p-Sch9(T737)/Sch9, Mean: 0.1938
TORC1 [2]; wt yeast, nitrogen-starved then +Gln 2 min, Fig. 2e
  p-Sch9(T737)/Sch9, Mean: 0.8468
TORC1 [2]; wt yeast, nitrogen-starved then +Gln 2 min, n = 3, ED Fig. 2e
  p-Sch9(T737)/Sch9, Mean: 0.2928
TORC1 [2]; wt yeast, nitrogen-starved then +Gln 2 min, n = 4, ED Fig. 1g
  p-Sch9(T737)/Sch9, Mean: 0.4107
TORC1 [2]; wt yeast, nitrogen-starved then +Gln 5 min, Fig. 2e
  p-Sch9(T737)/Sch9, Mean: 0.2605
TORC1 [2]; wt yeast, nitrogen-starved then +Gln 5 min, n = 3, ED Fig. 2e
  p-Sch9(T737)/Sch9, Mean: 0.215
TORC1 [2]; wt yeast, nitrogen-starved then +Gln 5 min, n = 4, ED Fig. 1g
  p-Sch9(T737)/Sch9, Mean: 0.1743
TORC1 [2]; wt yeast, nitrogen-starved then +Gln 15 min, Fig. 2e
  p-Sch9(T737)/Sch9, Mean: 0.1412
TORC1 [2]; wt yeast, nitrogen-starved then +Gln 15 min, n = 4, ED Fig. 1g
  p-Sch9(T737)/Sch9, Mean: 0.07833

## CC(=O)SCCNC(=O)CCNC(=O)[C@H](O)C(C)(C)COP(=O)(O)OP(=O)(O)OC[C@H]1O[C@@H](n2cnc3c(N)ncnc32)[C@H](O)[C@@H]1OP(=O)(O)O [acetyl-CoA]
TORC1 [1]; [3]
  In vitro TORC1 kinase assay - CoA compounds, relative activity, Mean: 1
TORC1 [1]; compound 0.22 mM
  In vitro TORC1 kinase assay - CoA compounds, relative activity, Mean: 0.9698
TORC1 [1]; compound 2 mM
  In vitro TORC1 kinase assay - CoA compounds, relative activity, Mean: 0.7319
TORC1 [1]; compound 6 mM
  In vitro TORC1 kinase assay - CoA compounds, relative activity, Mean: 0.5296
TORC1 [1]
  IC50: 2.88 mM
mTORC1; compound 0.01 mM
  In vitro mTORC1 assay, p-4E-BP1(T37/46)/4E-BP1, Mean: 0.9483
mTORC1; compound 0.05 mM
  In vitro mTORC1 assay, p-4E-BP1(T37/46)/4E-BP1, Mean: 0.8033
mTORC1; compound 0.1 mM
  In vitro mTORC1 assay, p-4E-BP1(T37/46)/4E-BP1, Mean: 0.8597
mTORC1; compound 0.5 mM
  In vitro mTORC1 assay, p-4E-BP1(T37/46)/4E-BP1, Mean: 0.644
mTORC1; compound 1 mM
  In vitro mTORC1 assay, p-4E-BP1(T37/46)/4E-BP1, Mean: 0.6848
mTORC1; compound 2.5 mM
  In vitro mTORC1 assay, p-4E-BP1(T37/46)/4E-BP1, Mean: 0.4704
mTORC1; compound 5 mM
  In vitro mTORC1 assay, p-4E-BP1(T37/46)/4E-BP1, Mean: 0.3906
mTORC1; mTORC1 immunoprecipitated from HEK293FT, recombinant 4E-BP1, 500 μM ATP
  IC50: 1.03 mM
